The subject of series [1] is ELOVL6. The settings on record: 'in vivo' as printed; cited from earlier work.
Series [2] has as its target hELOVL3 (Homo sapiens, UniProt Q9HB03). The settings on record: in vitro; cited from earlier work.
In series [3] the test system is late viral protein pUL99. Put plainly: HCMV late viral protein expression (pUL99-GFP). In kind it is cell-based, human cytomegalovirus.
In series [4] the test system is ELOVL3. The settings on record: 'in vivo' as printed; cited from earlier work.
The subject of series [5] is MRCS human fibroblasts. Put plainly: host cell viability, morphology and toxicity in fibroblasts. As to conditions: at the antiviral doses tested.
Description: (§1) Top panels: About 90% confluent MRCS human fibroblasts were treated with the indicated concentrations of triacsin C or the carrier in which the drug was dissolved (DMSO) in the presence of 10% fetal calf serum and photographed 96 h later. Bottom left panel: About 90% confluent MRCS fibroblasts were either mock infected or infected with the AD169 strain of HCMV at a multiplicity of (0.1 pfu/cell). The uninfected or infected cells received DMSO (solvent for the drug) or the drug for 96 h before cells were assayed for viability. Bottom right panel: About 90% confluent MRCS fibroblasts were infected with HCMV at a multiplicity of (0.1 pfu/cell) in the presence of DMSO (0 nM triacsin C) or triacsin C at the indicated concentrations. Infected fibroblasts were maintained in medium containing 10% fetal calf serum. Virus yield in the medium at 96 h after infection was determined by infecting fibrobalsts and assaying IE1 expression by immunofluorescence 24 h later. 96 h after infection, cells were harvested into culture medium and sonicated to release cell-associated virus. Virus yield in the medium was determined by infecting fibroblasts and assaying IE1 expression by immunofluorescence 24 h later.
(§2) The effect of triacsin C on the viability of MRCS human fibroblasts in culture medium containing 10% fetal calf serum was tested. At the time drug was added, cells were about 90% confluent.
Series [6] deals with HCMV AD169 strain. Put plainly: microbe, parasite or virus in culture. The series is classed as cell-based, human cytomegalovirus.
In series [7] the test system is HCMV. Put plainly: proposed combination of TOFA and triacsin C, virus replication. The series is classed as cell-based, human cytomegalovirus. As to conditions: for magnitude of the therapeutic effect: 10 μg/mL TOFA.
The subject of series [8] is HCV JFH1 strain derivative. Put plainly: release of infectious HCV from Huh7.5 cells, TCID50 assay.
Description: Huh7.5 cells were infected with a derivative of HCV JFH1 strain (MOI=0.1 TCID50/cell). Infected cells were maintained in medium containing 10% fetal calf serum plus DMSO (0 nM triacsin C) or triacsin C at the indicated concentrations. Media were harvested at 72 h and infectious virus was quantified by standard TCID50 assay on Huh7.5 cells.
Virus yield in the medium at 72 h after infection was determined.
Huh7.5 cells were infected a derivative of HCV JFH1 strain (MOI=0.1 TCID50/cell) Infected cells were maintained in medium containing 10% fetal calf serum plus DMSO (0 μg/ml TOFA) or TOFA at the indicated doses. Media were harvested at 72 h and infectious virus was quantified by standard TCID50 assay on Huh7.5 cells.
Huh7.5 cells which was infected with HCV and treated with indicated amounts of TOFA (FIG. 21).
Series [9] deals with HIV-1. Put plainly: proposed combination of TOFA and enfurtivide, HIV-1-infected C8166 cells. The series is classed as cell-based. As to conditions: for magnitude of the therapeutic effect: 10 μg/mL TOFA. From the text: Non-limiting examples of assays that could be performed to assess the effect of a combination of an ACC inhibitor and an entry inhibitor on HIV-1 replication follow. Assays for TOFA-mediated antiviral activity using HIV-1-infected C8166 cells have been described in (WO 2009/023059). In each assay, various concentrations of TOFA can be combined with various concentrations of enfurtivide and assayed for their effect on virus replication. In one preferred embodiment, a physiological concentration of enfurtivide is held constant as the dose of TOFA is increased. Control cultures are treated with no drug, enfurtivide alone or the various concentrations of TOFA alone. Samples are taken at 24, 48, 72 and 96 hours after initiation of drug treatment. The antiviral effect of enfurtivide plus each concentration of TOFA is then compared to the activity of enfurtivide alone or the various concentrations of TOFA alone. Uptake of neutral red dye is used to determine the relative level of toxicity in duplicate cultures at each time a sample is harvested. […] At 10 μg/mL of TOFA, the magnitude of the therapeutic effect is increased from ^˜10-fold in the absence of enfurtivide to ^˜100-fold in its presence. […] Similar results are obtained for other entry inhibitors.

For series [10], the system named is influenza A. The series is classed as cell-based. The settings on record: for magnitude of the therapeutic effect: 10 μg/mL TOFA.
In series [11] the test system is host cell.
The test system of series [12] is viral growth and/or replication. Put plainly: proposed combination of TOFA and ELOVL inhibitor, virus replication. In kind it is cell-based. As to conditions: presence of a therapeutically effective concentration of ELOVL inhibitor.
Series [13] concerns the target T1, hELOVL6 (Homo sapiens, UniProt Q9H5J4).
T1 sequence (Q9H5J4 1-265): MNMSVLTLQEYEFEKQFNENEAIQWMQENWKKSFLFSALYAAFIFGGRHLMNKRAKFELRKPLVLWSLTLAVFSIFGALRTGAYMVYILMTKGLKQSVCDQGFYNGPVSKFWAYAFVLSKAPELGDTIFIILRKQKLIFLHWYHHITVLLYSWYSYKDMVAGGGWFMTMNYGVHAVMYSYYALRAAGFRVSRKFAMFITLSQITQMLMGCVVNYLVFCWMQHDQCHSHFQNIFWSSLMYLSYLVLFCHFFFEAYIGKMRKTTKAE
The settings on record: in vitro; read-out: hELOVL6 IC50; cited from earlier work.

The subject of series [14] is MRCS human fibroblasts.
Description: as §1, §2

pIC50: −log10 of the molar value. Where “and” joins values, the source holds several entries; their conditions need not be identical. Equal values may be shown once. Read-outs that look alike come from different tables or passages of the source. Some results are limits rather than exact numbers.

We go through 3 molecules from US9168269B2, “Inhibitors of long and very long chain fatty acid metabolism as broad spectrum anti-virals” (THE TRUSTEES OF PRINCETON UNIVERSITY, priority 2010, dated 2015).

Chain of hELOVL3 (Q9HB03 whole entry): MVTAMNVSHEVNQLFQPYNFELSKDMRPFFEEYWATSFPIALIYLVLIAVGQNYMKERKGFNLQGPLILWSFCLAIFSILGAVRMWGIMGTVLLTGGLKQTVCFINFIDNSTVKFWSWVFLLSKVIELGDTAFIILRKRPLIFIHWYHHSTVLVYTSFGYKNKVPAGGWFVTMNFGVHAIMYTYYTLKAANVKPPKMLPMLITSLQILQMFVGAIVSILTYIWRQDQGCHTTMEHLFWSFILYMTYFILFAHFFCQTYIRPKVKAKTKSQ

Consider `O=C1Nc2ccc(-c3ccn[nH]3)cc2[C@](CNC(=O)c2ccc(F)cc2)(C(F)(F)F)O1` [(S)-1y], for which the pIC50 (commonly the negative decadic logarithm of the IC50, by convention in mol/L) is 6.77 in [1], roughly 6.89 in series [2] and less than 5.30 in series [4]. The “HCMV late pUL99 expression, in words” value in [3] was “dramatically reduced”. In addition, in [5], the “toxicity on the cells” value is “Without inducing any toxicity”. Further, the “inhibition of HCMV replication” value in [6] (25 μM) is roughly 40 fold; in series [6] (50 μM) it was greater than 1000 fold.

As to `CCCCCCCCCCCCCCOc1ccc(C(=O)O)o1` [TOFA], in [7], the “concentration of TOFA required to produce a 10-fold reduction in HCMV replication” value was ~10 μg/mL and < 5 μg/mL. Moreover, the “magnitude of the therapeutic effect” value in series [7] (absence of triacsin C) is given as roughly 10 fold; in series [7] (presence of triacsin C), roughly 100 fold; in series [9] (absence of enfurtivide) it was roughly 10 fold; in [9] (presence of enfurtivide) it was roughly 100 fold; in series [10] (absence of oseltamivir), roughly 10 fold; in [10] (presence of oseltamivir), roughly 100 fold. For the same molecule, the “inhibition of release of infectious HCV particles” value is reported as greater than 500 fold in series [8] (5 μg/ml) and greater than 1000 fold in series [8] (10 μg/ml). Also, the “concentration of TOFA required to produce a 10-fold reduction in HIV-1 replication” value in [9] (TOFA alone) is roughly 10 μg/mL; in series [9] (presence of a pharmacologically acceptable concentration of enfurtivide), less than 5 μg/mL. Further, the “concentration of TOFA required to produce a 10-fold reduction in influenza A replication” value was roughly 10 μg/mL in [10] (TOFA alone) and less than 5 μg/mL in series [10] (presence of a pharmacologically acceptable concentration of oseltamivir). The “host cell toxicity, neutral red dye assay” value is “does not increase host cell toxicity” in [11] (combined use of TOFA and enfurtivide); “does not increase host cell toxicity” in series [11] (combined use of TOFA and oseltamivir); “does not increase host cell toxicity” in series [11] (combined use of TOFA and triacsin C). Also, the “reduction of the TOFA concentration required to reduce viral growth and/or replication by 10-fold” value in series [12] is given as no less than 2 fold. The “inhibition of HCMV replication” value in series [6] (5 μg/ml) is greater than 500 fold.

In the case of `O=C(Nc1ccc(C(F)(F)F)cc1)N1C2CCC1CC(S(=O)(=O)c1ccccc1)C2` (stereo not drawn) [endo-1k], the pIC50 in [13] was roughly 7.11. Also, the “HCMV late pUL99 expression, in words” value in [3] is recorded as “dramatically reduced”. Further, in [14], the “toxicity on the cells” value is listed as “Without inducing any toxicity”. Moreover, the “inhibition of HCMV replication” value in [6] (50 μM) was roughly 400 fold.
